Target: T1, mu opiate receptor (MOR) (Rattus norvegicus, UniProt P33535)
T1 construct: from tissue; host or cells: striatum (membrane preparation)
Format: biochemical
Settings: for Concentration of FLNA-Binding Compound as Agonist 0.1 μM / Concentration of FLNA-Binding Compound as Agonist 1 μM / Concentration of FLNA-Binding Compound as Agonist 1 μM + BFNA: [35S]GTPγS binding to Gαo in striatal membranes; for Concentration of FLNA-Binding Compound as Agonist 0.1 μM: compound 0.1 μM; for Concentration of FLNA-Binding Compound as Agonist 1 μM: compound 1 μM; for Concentration of FLNA-Binding Compound as Agonist 1 μM + BFNA: compound 1 μM plus 1 μM β-funaltrexamine (MOR antagonist)
Method: To assess the mu opiate receptor (MOR) agonist activity of positive compounds from the FLNA screening, compounds were tested in a [^35S]GTPγS binding assay using striatal membranes. […] This assay measures a functional consequence of receptor occupancy at one of the earliest receptor-mediated events. The assay permits for traditional pharmacological parameters of potency, efficacy and antagonist affinity, with the advantage that agonist measures are not subjected to amplification or other modulation that may occur when analyzing parameters further downstream of the receptor.
Thus, striatal tissue was homogenized in 10 volumes of ice cold 25 mM HEPES buffer, pH 7.4, which contained 1 mM EGTA, 100 mM sucrose, 50 μg/ml leupeptin, 0.04 mM PMSF, 2 μg/ml soybean trypsin inhibitor and 0.2% 2-mercaptoethanol. The homogenates were centrifuged at 800×g for 5 minutes and the supernatants were centrifuged at 49,000×g for 20 minutes.
The resultant striatal membrane preparation (200 μg) was admixed and maintained (incubated) at 30° C. for 5 minutes in reaction buffer as above that additionally contained 1 mM MgCl2 and 0.5 nM [^35S]GTPγS (0.1 μCi/assay, PerkinElmer Life and Analytical Sciences) in a total volume of 250 μl and continued for 5 minutes in the absence or presence of 0.1-10 μM of an assayed compound of interest. The reaction was terminated by dilution with 750 μl of ice-cold reaction buffer that contained 20 mM MgCl2 and 1 mM EGTA and immediate centrifugation at 16,000×g for 5 minutes.
Normal rabbit serum (1 μl) was added to 1 ml of lysate and incubated at 25° C. for 30 minutes. Nonspecific immune complexes were removed by incubation with 25 μl of protein A/G-conjugated agarose beads at 25° C. for 30 minutes followed by centrifugation at 5,000×g at 4° C. for 5 minutes. The supernatant was divided and separately incubated at 25° C. for 30 minutes with antibodies raised against Gαo proteins (1:1,000 dilutions).
The immunocomplexes so formed were collected by incubation at 25° C. for 30 minutes with 40 μl of agarose-conjugated protein A/G beads and centrifugation at 5,000×g at 4° C. for 5 minutes. The pellet was washed and suspended in buffer containing 50 mM Tris-HCl, pH 8.0, and 1% NP-40. The radioactivity in the suspension was determined by liquid scintillation spectrometry.

T1 sequence (P33535 whole entry): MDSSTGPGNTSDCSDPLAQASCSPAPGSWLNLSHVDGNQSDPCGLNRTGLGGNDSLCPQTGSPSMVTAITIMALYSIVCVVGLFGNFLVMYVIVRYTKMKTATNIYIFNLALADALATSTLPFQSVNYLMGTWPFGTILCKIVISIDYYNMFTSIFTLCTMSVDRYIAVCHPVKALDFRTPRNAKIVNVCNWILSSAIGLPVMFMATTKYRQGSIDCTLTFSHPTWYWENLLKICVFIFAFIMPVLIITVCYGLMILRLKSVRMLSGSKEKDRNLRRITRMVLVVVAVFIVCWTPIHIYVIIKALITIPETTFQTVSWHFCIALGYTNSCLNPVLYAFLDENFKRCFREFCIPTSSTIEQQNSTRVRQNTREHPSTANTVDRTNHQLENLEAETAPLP

SMILES	% DAMGO (0.1 μM)	% DAMGO (1 μM)	% DAMGO + BFNA	Concentration of FLNA-Binding Compound as Agonist 0.1 μM	Concentration of FLNA-Binding Compound as Agonist 1 μM	Concentration of FLNA-Binding Compound as Agonist 1 μM + BFNA
CC1CCC(C(C)C)C(OCC(O)CN2CCN(CCCN3CCOCC3)CC2)C1 (stereo not drawn) [Compound A0026]	79.7%	70.7%	459.3%	140.7%	179.8%	120.8%
Cc1ccc(C(C)C)c(OCC(O)CN2CC(C)OC(C)C2)c1 (stereo not drawn) [Compound A0028]	81.3%	73.8%	443.7%	143.6%	187.7%	116.7%
CC1CN(CC(O)COc2ccccc2C(C)C)CC(C)O1 (stereo not drawn) [Compound A0029]	98.4%	81.2%	84.8%	173.8%	206.5%	22.3%
Cc1cccc(OCC(O)CN2CC(C)OC(C)C2)c1 (stereo not drawn) [Compound A0030]	75.5%	113.2%	628.1%	133.4%	287.8%	165.2%
CC1CCC(C(C)C)C(OCC(O)CN2CCN(CCN3CCCCC3)CC2)C1 (stereo not drawn) [Compound A0031]	100.9%	116.8%	573.8%	178.2%	297.0%	150.9%
CC1CCC(C(C)C)C(OCC(O)CN2CC(C)OC(C)C2)C1 (stereo not drawn) [Compound A0032-1]	95.5%	117.6%	303.8%	187.4%	324.5%	224.5%
CCN(CC)CC(O)COC1CC(C)CCC1C(C)C (stereo not drawn) [Compound A0032]	115.6%	93.4%	180.0%	226.9%	257.8%	133.0%
CC1CCC(C(C)C)C(OCC(CN2CC(C)OC(C)C2)NCc2ccccc2)C1 (stereo not drawn) [Compound A0033]	79.4%	92.2%	159.9%	155.8%	254.6%	118.2%
CC1CCC(C(C)C)C(OCC(O)CN2CCCC2=O)C1 (stereo not drawn) [Compound A0035]	61.5%	57.5%	119.9%	120.6%	158.8%	88.6%
CC1CCC(C(C)C)C(OCC(O)CN2CCCCC2=O)C1 (stereo not drawn) [Compound A0036]	73.4%	60.7%	85.5%	144.1%	167.5%	63.2%
CC1CCC(C(C)C)C(OCC(O)CN(C(C)C)C(C)C)C1 (stereo not drawn) [Compound A0037]	90.7%	85.6%	141.5%	177.9%	236.2%	104.6%
CC1CCC(C(C)C)C(OCC(O)Cn2cccc2)C1 (stereo not drawn) [Compound A0038]	90.1%	85.0%	144.8%	176.7%	234.5%	107.0%
CC1CCC(C(C)C)C(OCC(O)CN2CCc3ccccc3C2)C1 (stereo not drawn) [Compound A0040]	23.5%	54.0%	22.6%	46.1%	149.0%	16.7%
CC1CN(CC(O)COc2ccc(Br)c(F)c2)CC(C)O1 (stereo not drawn) [Compound A0041]	108.4%	102.8%	68.5%	212.7%	283.6%	50.6%
CC1CN(CC(O)COc2cccc(N(C)C)c2)CC(C)O1 (stereo not drawn) [Compound A0042]	75.2%	84.5%	121.1%	147.5%	233.1%	89.5%
CC1CN(CC(O)COc2ccccc2Br)CC(C)O1 (stereo not drawn) [Compound A0043]	93.4%	81.1%	120.6%	183.3%	223.8%	89.1%
CC(=O)c1ccc(OCC(O)CN2CC(C)OC(C)C2)cc1 (stereo not drawn) [Compound A0044]	89.8%	75.8%	182.3%	176.2%	209.1%	134.7%
CC1CN(CC(O)COc2ccc(Br)c(Cl)c2)CC(C)O1 (stereo not drawn) [Compound A0045]	73.3%	99.3%	134.2%	143.9%	274.2%	99.2%
CC1CN(CC(O)COc2cc(F)cc(F)c2)CC(C)O1 (stereo not drawn) [Compound A0046]	131.2%	128.3%	189.4%	257.5%	354.1%	140.0%
CC1CN(CC(O)COc2ccc(Cl)cc2)CC(C)O1 (stereo not drawn) [Compound A0047]	118.8%	92.4%	157.6%	233.0%	255.0%	116.5%
COc1ccc(OCC(O)CN2CC(C)OC(C)C2)cc1 (stereo not drawn) [Compound A0048]	119.1%	109.7%	226.3%	233.7%	302.9%	167.2%
CC1CN(CC(O)COc2cccc(F)c2)CC(C)O1 (stereo not drawn) [Compound A0049]	118.4%	134.2%	144.9%	232.3%	370.3%	107.1%
CN(C)c1cccc(OCC(O)CN2CCc3ccccc3C2)c1 (stereo not drawn) [Compound A0050]	77.0%	68.6%	109.6%	151.0%	189.3%	81.0%
CC1CN(CC(O)COc2cccc(C(F)(F)F)c2)CC(C)O1 (stereo not drawn) [Compound A0051]	148.0%	140.1%	286.3%	290.4%	386.6%	211.6%
COc1ccc(OCC(O)CN2CCc3ccccc3C2)cc1 (stereo not drawn) [Compound A0053]	46.5%	47.5%	46.2%	78.5%	118.2%	15.1%
